Source: patent publication US7037962B2, “Composition and process for enhancing bio-mass production in greenhouses” (Ciba Specialty Chemicals Corp., priority 2002, dated 2006)

System: Carnation
Assay: Growth of carnation in greenhouses covered with the film
Type: in vivo
Conditions: 1% compound 100 in Film A versus Film B
Method: A three layer LDPE/EVA industrial film is prepared by blow molding having the following structure: 200μ thickness, 50μ EVA 5%, 100μ EVA 14% and 50μ EVA 5%. […] Agricultural Tests Two cultivars, namely ‘Jack’ and ‘Samuela’, have been grown under two greenhouses one with film A and the other with film B. The cultivation started on the 18 Sep. 2001 and harvesting started on the 3, Oct. 2001. The cultivation conditions are the standard conditions used in the region.

CN(C)c1ccc(C=C2C(=O)NC(=O)NC2=O)cc1 [compound 100, condensation product of 4-dimethylaminobenzaldehyde and barbituric acid]
effect on the production and quality of carnation: evident
